From patent US20080299140A1, “Immunogenic Composition and Peptide Sequences for Prevention and Treatment of an Hsv Condition” (priority 2002, published 2008) come the findings set out here.

By pIC50 is commonly meant −log10 of the IC50, conventionally taken in molar units.

Molecules are shown by their SMILES. pIC50: −log10 of the molar value. Read-outs that look alike come from different tables or passages of the source.

Test [1] has as its target T1, DR3=HLA-DR(α1*0101,α1*0301) (Homo sapiens, UniProt P01903+P01911, A100K/A102G/A103R/A169T/F55Y/I96L/K41T/L162R/M171V/P40S/Q125H/Q178H/Q39Y/R42S/S66N/T106N/T262R/W38E/Y61H).
T1 construct: endogenous in cells; host or cells: STEILIN (EBV homozygous B cell line)
As to the kind of experiment: HLA-DR specific binding assay, DR3.

The target of test [2] is T2, DR13=HLA-DR(α1*0101,α1*1301) (Homo sapiens, UniProt P01903+P01911, A100E/A169T/K41T/L162R/M171V/P40S/Q125H/Q178H/Q39Y/Q99D/R42S/S66N/T262R/W38E/Y61H).
T2 construct: endogenous in cells; host or cells: 0206AD (EBV homozygous B cell line)
As to the kind of experiment: HLA-DR specific binding assay, DR13.

The test system of test [3] is HLA-DR and HLA-DP molecules. As to the kind of experiment: MHC class II binding assays, panel of twelve HLA class II molecules (number of alleles bound). As to conditions: number of the twelve class II MHC alleles bound; title: Threshold 600 nM/5 alleles.
For test [4], the target named is T3, DR4=HLA-DR(α1*0101,α1*0401) (Homo sapiens, UniProt P01903+P01911, A100K/A169T/F76Y/I96L/K127E/L162R/M171V/N62H/P40V/Q125Y/R42H/S133A/S149N/S66Y/V115G/V209L/W38E).
T3 construct: endogenous in cells; host or cells: BOLETH (EBV homozygous B cell line)
As to the kind of experiment: biochemical. It is filed as binding.

For test [5], the target named is T4, DR15=HLA-DR(α1*0101,α1*1501) (Homo sapiens, UniProt P01903+P01911).
T4 construct: endogenous in cells; host or cells: EBV homozygous human B cell line
As to the kind of experiment: HLA-DR specific binding assay, DR15.

Test [6] has as its target T5, DRB5=HLA-DR(α1*0101,α5*0101) (Homo sapiens, UniProt P01903+Q30154).
T5 construct: endogenous in cells; host or cells: EBV homozygous human B cell line
As to the kind of experiment: biochemical. It is filed as binding. The following applies: Table V; […]; read-out: IC50 DRB5.

Test [7] has as its target T6, DR11=HLA-DR(α1*0101,α1*1101) (Homo sapiens, UniProt P01903+P01911, A100R/A169T/A87E/I96F/K41T/L162R/M171V/P40S/Q125H/Q178H/Q39Y/Q99D/R42S/S66Y/T262R/V115G/W38E).
T6 construct: endogenous in cells; host or cells: SWEIG (EBV homozygous B cell line)
As to the kind of experiment: biochemical. It is filed as binding.

Test [8] has as its target T7, DR1=HLA-DR(α1*0101,α1*0101) (Homo sapiens, UniProt P01903+P01911, A100R/D57E/F55L/F60I/F76Y/I96L/L162R/M171V/P40L/Q125E/R42F/V115G/Y59C).
T7 construct: endogenous in cells; host or cells: EBV homozygous human B cell line
As to the kind of experiment: biochemical. The format is binding. As to conditions: […].

Test [9] has as its system lymphocytes obtained from HSV-1 infected H-2^d mice. As to the kind of experiment: HSV-primed T-cell responses to gD peptides in HSV-1 infected mice. It is filed as cell-based. The following applies: HSV infected H-2^d mice (FIG. 6). The protocol:
Twelve days after the second immunization, spleen and inguinal lymph nodes (LN) were removed and placed into ice-cold serum free HL-1 medium supplemented with 15 mM HEPES, 5×10^−5 M β-mercaptoethanol, 2 mM glutamine, 50 U of penicillin and 50 μg of streptomycin (GIBCO-BRL, Grand Island, N.Y.) (complete medium, CM). The cells were cultured in 96-well plates at 5×10^5 cells/well in CM, with recall or control peptide at 30, 10, 3, 1, or 0.3 μg/ml concentration, as previously described in (BenMohamed et al., 2000 and 2002). The cell suspensions were incubated for 72 h at 37° C. in 5% CO2. One μCi (micro-curie) of (^3H)-thymidine (Dupont MEN, Boston, Mass.) was added to each well during the last 16 h of culture. The incorporated radioactivity was determined by harvesting cells onto glass fiber filters and counted on a Matrix 96 direct ionization-counter (Packard Instruments, Meriden, Conn.). Results were expressed as the mean cpm of cell-associated (^3H)-thymidine recovered from wells containing Ag minus the mean cpm of cell-associated (^3H)-thymidine recovered from wells without Ag (A cpm) (average of triplicate). The Stimulation Index (SI) was calculated as the mean cpm of cell-associated (^3H)-thymidine recovered from wells containing Ag divided by the mean cpm of cell-associated (^3H)-thymidine recovered from wells without Ag (average of triplicate). For all experiments the irrelevant control peptide gB141-165 and the T-cell mitogen Concanavalin A (ConA) (Sigma, St. Louis, Mo.) were used as negative and positive controls, respectively. Proliferation results were confirmed by repeating each experiment twice. A T-cell proliferative response was considered positive when A cpm>1000 and SI>2.
To define the fine specificity of broadly reactive T-cells associated with viral immunity and to explore immunodominance in the context of HSV infection, proliferation of lymphocytes obtained from twenty HSV-1 infected H-2^d mice were evaluated using the twelve gD peptides as Ag (FIG. 6). […] Despite a difference between individual mice, a unique array of T-cell responses was identified for each of the twenty infected mice analyzed.

The target in test [10] is T8, DR7=HLA-DR(α1*0101,α1*0701) (Homo sapiens, UniProt P01903+P01911, A100R/A102G/A103Q/D57E/D86V/E43K/F76Y/K127E/L162R/M171V/P40G/Q125H/Q99D/R33Q/R42Y/R54Q/S133A/S66F/T210M/V115G/Y107V/Y59L/Y89S).
T8 construct: endogenous in cells; host or cells: EBV homozygous human B cell line
As to the kind of experiment: HLA-DR specific binding assay, DR7.

T5 sequence (Q30154 30-266, other chains not shown): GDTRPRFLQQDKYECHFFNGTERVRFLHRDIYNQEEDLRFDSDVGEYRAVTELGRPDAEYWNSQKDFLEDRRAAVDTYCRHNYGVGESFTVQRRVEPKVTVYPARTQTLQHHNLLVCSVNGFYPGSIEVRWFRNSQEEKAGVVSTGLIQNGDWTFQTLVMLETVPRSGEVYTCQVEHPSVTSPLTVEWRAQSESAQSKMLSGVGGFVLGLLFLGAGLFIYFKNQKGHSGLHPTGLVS

Turning to `CC[C@H](C)[C@H](NC(=O)[C@H](CO)NC(=O)[C@H](CC(=O)O)NC(=O)[C@@H](NC(=O)[C@@H](NC(=O)[C@@H](NC(=O)CNC(=O)[C@H](CCC(N)=O)NC(=O)[C@H](CCC(N)=O)NC(=O)[C@H](Cc1ccc(O)cc1)NC(=O)[C@H](C)NC(=O)[C@H](CCC(N)=O)NC(=O)[C@@H]1CCCN1C(=O)[C@H](CO)NC(=O)[C@H](CC(C)C)NC(=O)[C@H](CS)NC(=O)[C@H](C)NC(=O)[C@@H](N)CO)C(C)C)[C@@H](C)O)C(C)C)C(=O)NCC(=O)N[C@@H](CCSC)C(=O)N[C@@H](CC(C)C)C(=O)N1CCC[C@H]1C(=O)N[C@@H](CCCNC(=N)N)C(=O)N[C@@H](Cc1ccccc1)C(=O)N[C@H](C(=O)N1CCC[C@H]1C(=O)N[C@@H](CCC(=O)O)C(=O)N[C@@H](CC(N)=O)C(=O)N[C@@H](CCC(N)=O)C(=O)N[C@@H](CCCNC(=N)N)C(=O)N[C@H](C(=O)N[C@H](C(=O)N[C@@H](C)C(=O)N[C@H](C(=O)N[C@@H](Cc1ccc(O)cc1)C(=O)O)C(C)C)C(C)C)[C@@H](C)O)[C@@H](C)CC` [HSV 37], the pIC50 was 6.51 in [1] (IC50, DR3, Class II MHC allele DR3); 6.51 in test [1] (IC50 DR3, Table V, […]); 5.69 in test [2]; 7.40 in test [4] (IC50, DR4); 7.40 in test [4] (IC50 DR4); 7.89 in [5]. Further, the pIC50 in test [6] is 7.17; in [7] (Class II MHC allele DR11, read-out: IC50, DR11) it was 7.36; in [7] (Table V, […], read-out: IC50 DR11) it was 7.36; in test [8] (Table V, read-out: IC50 DR1), 8.40; in [8] (Class II MHC allele DR1, read-out: IC50, DR1), 8.40; in test [10], 6.70. Moreover, the Range in test [3] is reported as 9. The “T-cell responses recalled in HSV infected mice” value in [9] is reported as “either low or no response”.
